Question: Which melting point does the source give for CCC1(CC)c2cc(Br)ccc2-c2ccc(C=O)cc21 here?
Answer: Its melting point is 126 to 128 °C.

Question: For COC(=O)Cc1ccc(S(C)(=O)=O)c(Cl)c1, which melting point is on record?
Answer: Its melting point is 54 to 57 °C.

Question: With O=C(O)COc1cccc2c1CCC(Cc1coc(C(c3ccccc3)c3ccccc3)n1)C2 (stereo unspecified) as the compound, how does the melting point read?
Answer: Its melting point is 158 to 160 °C.

Question: Which melting point does the source give for COC(=O)C1Cc2cc(OC)ccc2N1S(=O)(=O)c1ccc(I)cc1 (stereo unspecified) here?
Answer: Its melting point is 154 °C.

Question: With Cc1cc(C)c(-c2cccc3c(O)cc(C)nc23)c(C)c1 as the compound, how does the melting point read?
Answer: Its melting point is greater than 250 °C.

Question: For Cc1ccc(-c2ccc3c(c2)C=C(C(=O)O)CS3)cc1, which melting point is on record?
Answer: The melting point was 244 °C.

Question: Which melting point does the source give for O=C1CCCC(c2ccccc2)N1c1ccc(F)cc1 (stereo unspecified) here?
Answer: The melting point was 87.5 to 88.5 °C.

Question: With CCC1(CC)Oc2ccc(C#N)cc2[C@@H](OC2=CC(=O)CC2)[C@@H]1O (relative stereo) as the compound, how does the melting point read?
Answer: Its melting point is 166 to 170 °C.

Question: Which melting point does the source give for COc1ccc(S(=O)(=O)Nc2ccccc2NC(C)=O)cc1 here?
Answer: The melting point was 160 to 161 °C.

Question: Which melting point does the source give for C=C1SC(=S)N(c2ccc3cc(-c4ccc(OC)c(-c5ccccc5)c4)ccc3c2)C1=O here?
Answer: The melting point was 266 to 269 °C.

Question: Which melting point does the source give for CC(OC1CCCCO1)C1CCC2C3CC=C4CC(O)CC(O)C4(C)C3CCC12C (stereo unspecified) here?
Answer: The melting point was 122 to 124 °C.

Question: Which melting point does the source give for c1ccc(-c2ncc(-c3cnc(-c4ccncc4)[nH]3)cn2)cc1 here?
Answer: Its melting point is 300 °C.

Question: With CC(C)NC(=O)N1CCC(F)(Cc2c3c(nn2C)c(N)nc2ccccc23)CC1 as the compound, how does the melting point read?
Answer: The melting point was 241 to 244 °C.

Question: Which melting point does the source give for CN(C)C(=O)c1cc(C#N)cnc1Cl here?
Answer: The melting point was 148 to 153 °C.

Question: With Oc1ccc(Nc2nc(Cl)nc(NC3CCCCCC3)n2)cc1Cl as the compound, how does the melting point read?
Answer: The melting point was 91 °C.

Question: Which melting point does the source give for CC(C(=O)O)c1ccc2c(c1)CCc1cccnc1S2 (stereo unspecified) here?
Answer: The melting point was 181 to 183 °C.

Question: Which melting point does the source give for COc1ccc(S(=O)(=O)Nc2cccnc2Nc2ccncc2)cc1 here?
Answer: Its melting point is 172 to 173 °C.

Question: Which melting point does the source give for CC1(C)C2CC[C@@]1(N1CCOCC1)[C@H](O)C2 here?
Answer: Its melting point is 35 to 36 °C.

Question: With CCOC(=O)c1c(N2CCNCC2)c2ccc(C)nc2n(CC)c1=O as the compound, how does the melting point read?
Answer: The melting point was 137 to 139 °C.

Question: Which melting point does the source give for O=Cc1ccc(OCc2ccccc2F)c(Cc2ccccc2F)c1 here?
Answer: Its melting point is 71 °C.

Question: Which melting point does the source give for O=C(O)c1ccc(CC(NC(=O)C(c2ccccc2)c2ccccc2)c2ccccc2)cc1 (stereo unspecified) here?
Answer: Its melting point is 245 to 248 °C.

Question: With CC(C)(O)Cc1ccc2ccccc2c1 as the compound, how does the melting point read?
Answer: Its melting point is 79 to 80 °C.

Question: Which melting point does the source give for CCc1nnc2c(O)nc3cc(OC)ccc3n12 here?
Answer: The melting point was greater than 250 °C.

Question: For OCC1(CO)c2ccccc2C=Cc2ccccc21, which melting point is on record?
Answer: Its melting point is 162 to 163 °C.

Question: With CCOC(=O)c1cc(Cl)cnc1NC(=O)Cc1ccccc1 as the compound, how does the melting point read?
Answer: The melting point was 114 °C.

Question: With O=c1[nH]c2cc(Cl)cc(Cl)c2c(O)c1Sc1ccc(O)cc1 as the compound, how does the melting point read?
Answer: Its melting point is greater than 300 °C.

Question: For O=C1CCCC2=C1C(c1ccc(F)c(C(F)(F)F)c1)C1=C(CCS1)N2 (single isomer, unassigned; (+)), which melting point is on record?
Answer: Its melting point is greater than 250 °C.

Question: Which melting point does the source give for COC(=O)c1c(OC)cc2oc(C)cc(=O)c2c1OC here?
Answer: Its melting point is 188 °C.

Question: For CCCCNC(=O)NS(=O)(=O)c1c(C(=O)OCC)c(Cl)nn1C, which melting point is on record?
Answer: Its melting point is 109 to 111 °C.

Question: With CC(C)(C)c1ncn(Sc2ncc([N+](=O)[O-])s2)n1 as the compound, how does the melting point read?
Answer: The melting point was 219 to 221 °C.

Question: With COC(=O)c1cc2cccc(OC)c2cc1O as the compound, how does the melting point read?
Answer: The melting point was 182 °C.

Question: Which melting point does the source give for CCOC(=O)C1=C(C)N=C(NC)N(C(=O)OCC)C1c1cccc([N+](=O)[O-])c1 (stereo unspecified) here?
Answer: The melting point was 112 to 114 °C.

Question: Which melting point does the source give for COc1cc2ncnc(Nc3cccc(Cl)c3F)c2cc1OC1CCN(C(=O)CO)CC1 here?
Answer: Its melting point is 196 °C.

Question: With CC(C)(C)OC(=O)N1CCC(CCOc2ccc(C=NO)cc2)CC1 as the compound, how does the melting point read?
Answer: Its melting point is 114 to 116 °C.

Question: With N#CNc1nnc(-c2ccccc2Nc2cccc(C(F)(F)F)c2)o1 as the compound, how does the melting point read?
Answer: The melting point was greater than 230 °C.

Question: Which melting point does the source give for COc1ccccc1OP(=O)(CN(CC#N)N=O)Oc1ccccc1OC here?
Answer: Its melting point is 83 to 85 °C.

Question: For COc1ccc(Sc2cnc(NC(C)=O)s2)cc1, which melting point is on record?
Answer: The melting point was 190 to 191 °C.

Question: For Cc1cc(=O)oc2c(C)c3c(cc12)CCCO3, which melting point is on record?
Answer: Its melting point is 162 to 163 °C.

Question: Which melting point does the source give for Cc1cccc(C)c1C(CNC(=O)OC(C)(C)C)COCc1c(F)cccc1F (stereo unspecified) here?
Answer: The melting point was 100 °C.

Question: With CCc1nccn1N=Cc1ccccc1 as the compound, how does the melting point read?
Answer: Its melting point is 67 to 68 °C.

Question: For FC(F)(F)c1ccc(-c2cc(C(F)(F)F)n3cncc3n2)cc1, which melting point is on record?
Answer: Its melting point is 158 °C.

Question: With CC(=O)C(=Cc1ccc(Br)s1)C(C)=O as the compound, how does the melting point read?
Answer: The melting point was 70 to 74 °C.

Question: For Cc1ccccc1-c1c(C(=O)N(C)C)ccc2ccccc12, which melting point is on record?
Answer: The melting point was 95 to 97 °C.

Question: Which melting point does the source give for CCCCC(=O)OCC(=O)C1(OC(C)=O)CCC2C3CC(C)C4=CC(=O)C=CC4(C)C3C(O)CC21C (stereo unspecified) here?
Answer: The melting point was 148 to 150 °C.

Question: With CCc1ccc(C2(OC(C)=O)C(=O)c3ccccc3C2=O)c(OC(C)=O)c1 as the compound, how does the melting point read?
Answer: Its melting point is 136 to 137 °C.

Question: For S=c1[nH]cnn1C1CCc2ccccc2C1 (stereo unspecified), which melting point is on record?
Answer: The melting point was 200 °C.

Question: Which melting point does the source give for COc1ccc(N2CCN(CC[C@H]3CC[C@H](NC(N)=O)CC3)CC2)c(Cl)c1Cl here?
Answer: The melting point was 195 to 198 °C.

Question: For O=C(CCN1CCN(c2ccccc2)CC1)NCC(=O)c1ccccc1, which melting point is on record?
Answer: Its melting point is 126 °C.

Question: For CCn1c(N)c(C(N)=O)c(=O)c2cnc(Nc3cccc(N4CCOCC4)c3)nc21, which melting point is on record?
Answer: The melting point was 195 °C.

Question: With CN1[C@@H](c2ccc(O)cc2)c2ccccc2S1(=O)=O as the compound, how does the melting point read?
Answer: The melting point was 178 to 180 °C.

Question: Which melting point does the source give for Cc1ccc(-c2csc(NC(=O)Nc3nc(-c4ccc(C)cc4)cs3)n2)cc1 here?
Answer: The melting point was greater than 300 °C.
